Test results from publication PMC3545992, “Trisubstituted Pyrazolopyrimidines as Novel Angiogenesis Inhibitors” (PLoS ONE, 2013).

How the values were obtained:
HUVECs [1] = test: Scratch assay (migration assay); format: cell-based, human; details: 10 µM, 16 h, HUVECs
Description: A: HMEC-1 cells were seeded in the same density as for the proliferation assay and treated with the respective compound at 30 µM for 72 h to test whether reduced cell numbers in the proliferation assay are due to inhibition of proliferation or to excessive cell death. No increase of detached, obviously dead or propidium iodide positive cells was detected. B and C: Confluent layers of HUVECs were scratched and the cells were allowed to migrate for 16 h in the presence or absence of 10 µM of the compounds. B: The columns indicate the area re-covered by migrating cells (n = 3, mean ± SEM, * p<0.05, One Way ANOVA, Dunnett). C: Scratches at endpoint, representative images taken out of three experiments.
HUVECs were seeded into a 24-well plate. After reaching confluency, cells were scratched using a 100 µl pipette tip. The wounded monolayers were washed twice with PBS containing Ca^2+/Mg^2+; then growth medium containing the indicated concentration of the compounds was added. After 16 h of migration, cells were washed and subsequently fixed with 4% paraformaldehyde. […] Images were taken using the TILLvisON system (TILL Photonics GmbH, Gräfelfing, Germany) and a CCD-camera connected to an Axiovert 200 microscope (Zeiss, Oberkochen, Germany). Quantitative image analysis of the cell covered area was done by Wimasis GmbH, Munich. A completely closed scratch was set as 100% migration, the area of the original open scratch was set as 0% migration.

HUVECs [2] = test: Quantification of lamellipodia and Rac1 immunocytochemistry in migrating cells; format: cell-based, human; details: 8 h migration; for reduction of formation of lamellipodia: 10 µM; for recruitment of Rac1 to lamellipodia (in words): immunofluorescence
Description: A: Confluent layers of HUVECs were scratched and the cells were allowed to migrate for 8 h in the presence or absence of the respective concentration of the compounds, until clear lamellipodia formation was visible in the control. The actin cytoskeleton was then stained with rhodamin-phalloidine and fluorescence images (10x magnification) of the scratches were taken. Left panel: For quantitative evaluation of lamellipodia formation, cells with prominent lamellipodia and ruffles were counted in relation to the number of cells at the scratch front (n = 3, mean ± SEM, * p<0.05, One Way ANOVA, Dunnett). Right panel: Representative images of the scratch front (f-actin, 40x magnification). B: Cells treated like in A were fixed and stained for f-actin (red), cortactin (green) and Rac1 (white). Representative images out of three experiments are shown.
Confluent layers of HUVECs were scratched and stimulated in 8-well μ-slides as described above. The cells were allowed to migrate for 8 h in the presence or absence of the respective concentration of the compounds, until clear lamellipodia formation was visible in the control. The actin cytoskeleton was then stained with rhodamine-phalloidin (Life Technologies, Darmstadt, Germany) and fluorescence images of the scratches were taken in 10x magnification with the Zeiss LSM 510 META. For quantitative evaluation of lamellipodia formation, cells with prominent lamellipodia and ruffles were counted with ImageJ (Cell Counter plug-in by Kurt De Vos) in relation to the total number of cells at the scratch front. The ratio was calculated as number of lamellipodia-positive cells per 100 cells at scratch front. In the same setting immunofluorescence staining was performed. Fixed cells were permeabilized for 2 min with 0.1% Triton X-100 in PBS. Cells were washed and unspecific binding was blocked with 0.2% BSA in PBS for 15 min. Thereafter, cells were incubated with primary antibody (cortactin: rabbit polyclonal, 1∶100, Cell Signaling, and Rac1: mouse monoclonal, 1∶100, Upstate) in 0.2% BSA/PBS over night at 4°C. After three washing steps with PBS, the specimen were incubated with the corresponding AlexaFluor® -labeled secondary antibodies for 30 min at room temperature. Finally, the slides were again washed three times with PBS (5 min), embedded in FluorSave^TM Reagent mounting medium and covered with 8 mm ×8 mm glass cover slips.

[3] = system: chorioallantoic membrane (CAM); test: Chorioallantoic membrane (CAM) assay, VEGF-induced vessel formation; format: in vivo, white leghorn; details: 250 nmol compound with 2.5 ng VEGF per cellulose disc, 24 h
Description: Fertilized white leghorn eggs were incubated for 72 h at 37°C in humidified atmosphere. After transferring the growing embryo into Petri dishes, a second incubation period of 72 h followed. At day 6, cellulose discs with 2.5 ng VEGF/250 nmol compound were placed on the membrane. 2.5 ng VEGF/DMSO was used as control. Pictures were taken after 24 h of stimulation. Representative images out of at least three experiments are shown.
Fertilized white leghorn eggs were incubated for 72 h at 37°C in humidified atmosphere. After transferring the growing embryo into a Petri dish, a second incubation period of 72 h followed. At day 6, two cellulose discs, one with 2.5 ng VEGF (VEGF 165, human recombinant from PeproTech GmbH, Hamburg, Germany)/250 nmol compound and the other with 2.5 ng VEGF/DMSO as control were placed on one CAM. After 24 h of stimulation, the vascular structure in the stimulated areas of the CAM was visualized using a stereomicroscope and a CCD camera (Olympus, Munich, Germany) and pictures were taken. The cellulose disks were produced as follows: after preparing a cellulose solution (2.5% hydroxyethyl cellulose, 2% polyvinylpyrrolidone (PVP 17), 2% polyethylene glycol (PEG 400) in water), the mixture was autoclaved, resulting in a homogenized, clear solution. For each disk, 200 μl of the warm solution were filled into the preformed circles of the lid of a 96 well plate and allowed to polymerize under a laminar air flow for 48 h. Finally, the cellulose disks were removed using tweezers and stored in a sterile Petri dish until use.

Cdk6/CycD1 = target: T1, Cdk6/CycD1 (Homo sapiens, UniProt Q00534); test: In vitro kinase profile (ProQinase); format: biochemical
T1 construct: purchased ProQinase (Freiburg, Germany)
T1 sequence (Q00534 whole entry): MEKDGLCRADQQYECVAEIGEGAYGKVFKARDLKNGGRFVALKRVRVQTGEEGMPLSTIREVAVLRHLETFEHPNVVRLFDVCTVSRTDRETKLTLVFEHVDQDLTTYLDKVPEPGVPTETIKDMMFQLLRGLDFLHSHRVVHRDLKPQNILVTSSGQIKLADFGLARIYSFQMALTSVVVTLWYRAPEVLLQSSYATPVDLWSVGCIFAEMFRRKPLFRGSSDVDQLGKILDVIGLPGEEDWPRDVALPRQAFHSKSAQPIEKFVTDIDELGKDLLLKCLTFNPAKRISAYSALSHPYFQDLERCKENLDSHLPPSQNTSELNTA
T1 sequence (P24385 whole entry partner): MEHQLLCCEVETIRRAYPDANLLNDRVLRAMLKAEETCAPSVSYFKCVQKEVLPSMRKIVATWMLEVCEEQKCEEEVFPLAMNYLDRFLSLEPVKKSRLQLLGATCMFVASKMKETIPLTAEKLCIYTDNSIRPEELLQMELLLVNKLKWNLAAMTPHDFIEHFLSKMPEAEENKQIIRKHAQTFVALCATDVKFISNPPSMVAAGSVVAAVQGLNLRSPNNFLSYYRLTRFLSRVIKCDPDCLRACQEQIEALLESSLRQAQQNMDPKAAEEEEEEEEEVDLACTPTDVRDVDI
Description: (§1) Therefore, it was of interest to see which kinases, especially which Cdks, are inhibited by those compounds. The kinase profiling was performed by ProQinase (Freiburg, Germany) for LGR 1406 and 1407. For LGR 1404 kinase profiling has recently been published previously. LGR 1406 and 1407 were tested for their IC50 in a panel of 24 kinases, including the Cdk1, Cdk2, Cdk4, Cdk5, Cdk6, Cdk7 and Cdk9. The other kinases tested were PTK6, EGFR, FAK, FGFR1 and FGFR2, NLK, PAK4, VEGFR1 and VEGFR2, MEK1, ROCK1, RAF1, ALK, RSK3, AURKA, and AMPKα1.

Cdk7/CycH/MAT1 = target: T2, Cdk7/CycH/MAT1 (Homo sapiens, UniProt P50613); test: In vitro kinase profile (ProQinase); format: biochemical
T2 construct: purchased ProQinase (Freiburg, Germany)
T2 sequence (P50613 whole entry): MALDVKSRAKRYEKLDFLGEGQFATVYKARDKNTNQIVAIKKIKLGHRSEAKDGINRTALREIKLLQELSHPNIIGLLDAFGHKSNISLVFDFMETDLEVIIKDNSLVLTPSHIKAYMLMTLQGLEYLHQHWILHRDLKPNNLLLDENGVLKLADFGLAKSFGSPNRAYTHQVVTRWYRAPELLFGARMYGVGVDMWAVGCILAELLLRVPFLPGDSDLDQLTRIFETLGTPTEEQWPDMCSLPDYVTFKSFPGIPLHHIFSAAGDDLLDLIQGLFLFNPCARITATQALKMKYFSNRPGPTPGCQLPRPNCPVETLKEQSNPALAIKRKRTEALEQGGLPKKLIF
T2 sequence (P51946 whole entry partner): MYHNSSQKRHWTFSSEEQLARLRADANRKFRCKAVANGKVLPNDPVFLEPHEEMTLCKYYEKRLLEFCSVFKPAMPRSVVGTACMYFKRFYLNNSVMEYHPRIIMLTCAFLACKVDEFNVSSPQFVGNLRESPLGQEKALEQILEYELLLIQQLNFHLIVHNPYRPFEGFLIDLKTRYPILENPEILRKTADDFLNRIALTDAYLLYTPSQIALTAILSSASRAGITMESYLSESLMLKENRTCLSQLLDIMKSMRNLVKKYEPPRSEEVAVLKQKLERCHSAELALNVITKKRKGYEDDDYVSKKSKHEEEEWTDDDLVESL
T2 sequence (P51948 whole entry partner): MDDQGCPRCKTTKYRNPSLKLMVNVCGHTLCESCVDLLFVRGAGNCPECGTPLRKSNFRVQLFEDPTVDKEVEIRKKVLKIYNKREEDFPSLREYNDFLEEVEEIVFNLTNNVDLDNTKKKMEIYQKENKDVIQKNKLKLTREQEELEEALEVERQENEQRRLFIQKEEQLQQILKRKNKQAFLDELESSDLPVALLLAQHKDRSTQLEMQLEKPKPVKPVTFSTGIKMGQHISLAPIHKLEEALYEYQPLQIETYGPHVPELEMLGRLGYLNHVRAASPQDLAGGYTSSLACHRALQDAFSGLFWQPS
Description: as §1

Cdk2/CycE = target: T3, Cdk2/CycE (Homo sapiens, UniProt P24941); test: In vitro kinase profile (ProQinase); format: biochemical
T3 construct: purchased ProQinase (Freiburg, Germany)
Description: as §1

Cdk5/p25 = target: T4, Cdk5/p25 (Homo sapiens, UniProt Q00535); test: In vitro kinase profile (ProQinase); format: biochemical
T4 construct: purchased ProQinase (Freiburg, Germany)
T4 sequence (Q00535 whole entry): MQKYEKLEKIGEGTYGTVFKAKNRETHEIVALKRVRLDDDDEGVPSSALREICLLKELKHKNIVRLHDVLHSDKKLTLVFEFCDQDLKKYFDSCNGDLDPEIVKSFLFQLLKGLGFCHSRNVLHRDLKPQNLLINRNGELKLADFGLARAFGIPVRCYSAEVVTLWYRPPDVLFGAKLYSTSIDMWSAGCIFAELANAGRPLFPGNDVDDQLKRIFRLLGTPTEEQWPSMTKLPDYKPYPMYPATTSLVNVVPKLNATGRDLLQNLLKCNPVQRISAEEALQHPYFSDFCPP
T4 sequence (Q15078 99-307 partner limits assumed): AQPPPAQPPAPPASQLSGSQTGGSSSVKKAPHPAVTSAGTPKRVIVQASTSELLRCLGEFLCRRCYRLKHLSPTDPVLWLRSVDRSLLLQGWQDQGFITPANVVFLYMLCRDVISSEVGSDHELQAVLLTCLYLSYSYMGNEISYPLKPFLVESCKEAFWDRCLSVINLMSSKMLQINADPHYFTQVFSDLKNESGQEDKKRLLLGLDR
Description: as §1

Cdk1/CycB = target: T5, Cdk1/CycB (Homo sapiens, UniProt P06493); test: In vitro kinase profile (ProQinase); format: biochemical
T5 construct: purchased ProQinase (Freiburg, Germany)
T5 sequence (P06493 whole entry): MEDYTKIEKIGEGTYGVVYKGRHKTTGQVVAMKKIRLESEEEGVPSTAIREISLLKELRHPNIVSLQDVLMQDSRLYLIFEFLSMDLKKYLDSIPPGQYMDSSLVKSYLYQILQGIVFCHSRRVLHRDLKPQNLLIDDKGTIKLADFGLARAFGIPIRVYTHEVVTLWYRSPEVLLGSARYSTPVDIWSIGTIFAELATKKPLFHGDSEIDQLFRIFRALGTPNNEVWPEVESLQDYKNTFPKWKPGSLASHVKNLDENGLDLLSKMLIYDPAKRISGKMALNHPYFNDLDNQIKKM
T5 sequence (P14635 whole entry partner): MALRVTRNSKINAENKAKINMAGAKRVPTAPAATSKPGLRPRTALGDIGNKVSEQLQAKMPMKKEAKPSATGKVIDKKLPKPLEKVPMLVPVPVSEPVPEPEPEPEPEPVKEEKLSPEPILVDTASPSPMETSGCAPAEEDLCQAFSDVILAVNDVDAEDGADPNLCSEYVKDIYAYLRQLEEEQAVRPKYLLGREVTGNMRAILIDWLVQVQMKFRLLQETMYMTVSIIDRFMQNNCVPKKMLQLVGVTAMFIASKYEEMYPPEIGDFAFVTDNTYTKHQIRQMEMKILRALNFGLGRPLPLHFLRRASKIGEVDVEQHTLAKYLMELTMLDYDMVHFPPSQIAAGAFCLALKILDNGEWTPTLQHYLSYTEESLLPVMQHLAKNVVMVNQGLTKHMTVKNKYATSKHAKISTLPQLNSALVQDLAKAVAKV
Description: as §1

Cdk2/CycA = target: T6, Cdk2/CycA (Homo sapiens, UniProt P24941); test: In vitro kinase profile (ProQinase); format: biochemical
T6 construct: purchased ProQinase (Freiburg, Germany)
Description: as §1

Which “effect on endothelial cell migration (in words)” value (HUVECs [1]) does the source give for `CC[C@H](CO)Nc1nc(NCc2ccccc2)c2n[nH]c(C(C)C)c2n1` [LGR 1404, 7-Benzylamino-5(R)-[(1-hydroxymethyl)propylamino]-3-isopropyl-1(2)H-pyrazolo[4,3-d]pyrimidine] here?
The value was “significantly decrease”.

What about the “reduction of endothelial cell migration” value (HUVECs [1]) of the same molecule?
Its value is 27%.

And the “reduction of formation of lamellipodia” value (HUVECs [2])?
The value was 54%.

And the “recruitment of Rac1 to lamellipodia (in words)” value (HUVECs [2])?
The value was “inhibit recruitment of Rac1 to lamellipodia”.

What about the VEGF-induced vessel formation [3] of the same molecule?
The VEGF-induced vessel formation was “completely inhibit”.

For `CC(C)c1n[nH]c2c(NCc3ccccc3)nc(NC3CCCCC3N)nc12` (stereo not drawn) [LGR 1406, 5-[(2-E/Z-aminocyclohexyl)amino]-7-benzylamino-3-isopropyl-1(2)H-pyrazolo[4,3-d]pyrimidine], which “effect on endothelial cell migration (in words)” value (HUVECs [1]) is on record?
The value was “significantly decrease”.

And the “reduction of endothelial cell migration” value (HUVECs [1])?
The value was 51%.

And the “reduction of formation of lamellipodia” value (HUVECs [2])?
The value was 67%.

And the “recruitment of Rac1 to lamellipodia (in words)” value (HUVECs [2])?
Its value is “inhibit recruitment of Rac1 to lamellipodia”.

And the VEGF-induced vessel formation [3]?
The VEGF-induced vessel formation was “completely inhibit”.

And the IC50 (Cdk6/CycD1)?
The IC50 was > 100 µM.

What about the IC50 (Cdk7/CycH/MAT1) of the same molecule?
The IC50 was > 100 µM.

And the IC50 (Cdk2/CycE)?
Its IC50 is 0.59 µM.

And the IC50 (Cdk5/p25)?
The IC50 was 0.44 µM.

What about the IC50 (Cdk1/CycB) of the same molecule?
The IC50 was 3.2 µM.

What about the IC50 (Cdk2/CycA) of the same molecule?
Its IC50 is 0.99 µM.

Which results are given for `CC(C)c1n[nH]c2c(NCc3ccccc3)nc(NC3CCC(N)CC3)nc12` (stereo not drawn) [LGR 1407, 5-[(4-E-aminocyclohexyl)amino]-7-benzylamino-3-isopropyl-1(2)H-pyrazolo[4,3-d]pyrimidine]?
effect on endothelial cell migration (in words) (HUVECs [1]): significantly decrease; reduction of endothelial cell migration (HUVECs [1]): 31%; reduction of formation of lamellipodia (HUVECs [2]): 67%; recruitment of Rac1 to lamellipodia (in words) (HUVECs [2]): inhibit recruitment of Rac1 to lamellipodia; VEGF-induced vessel formation [3]: completely inhibit; IC50 (Cdk6/CycD1): 91 µM; IC50 (Cdk7/CycH/MAT1): > 100 µM; IC50 (Cdk2/CycE): 0.99 µM; IC50 (Cdk5/p25): 1.6 µM; IC50 (Cdk1/CycB): 5.8 µM; IC50 (Cdk2/CycA): 1.5 µM
